Reference: article PMC4748415, “Impact of different cell penetrating peptides on the efficacy of antisense therapeutics for targeting intracellular pathogens” (Scientific Reports, 2016)
In brackets after ≈: the same amount, converted by molar mass. Several values for one entry are separate records, joined by “and”; a condition that tells them apart may be missing. Equal entries are not always repeated. Entries after “also recorded” stand apart in the source; their conditions may differ. Where two headings read alike, the source gives them in different places. Marks after values point to notes of the source that are not given here. Peptide text beside a SMILES is read from it.

Legend:
[1] = tested on: L. monocytogenes J0161 in infected C. elegans; assay: C. elegans infection model; conditions: 18 hours treatment; for Log CFUs/worm: 10 worms in triplicates; for Log CFUs reduction: versus water
Method: To test the efficacy of PNA in vivo we used Listeria-infected C. elegans. The temperature-sensitive sterile mutant strain C. elegans AU37 [sek-1(km4); glp-4(bn2) I] was used for this study. This strain is sterile at room temperature and can lay eggs only at 15 °C. Furthermore, mutation in the sek-1 gene of the p38 mitogen-activated protein kinase pathway (p38 MAPK pathway), makes this particular C. elegans strain more susceptible to Listeria infection[49][56]. Initially, the pathogenicity of three strains of Listeria (F4244, J0161 and ATCC19111) was tested in C. elegans as described before[24] to determine the most virulent strain to use for this study. […] Briefly, adult worms were grown for 5 days, at 15 °C (temperature that permits worms to lay eggs) on NGM agar plates seeded with a lawn of E. coli OP50. The eggs were harvested by bleaching[57] and maintained for 24 hours at room temperature with gentle agitation for hatching. Hatched larvae were transferred to a new NGM plate seeded with E. coli OP50 and were kept at room temperature for five days until worms reached the adult stage of growth. Adult worms were collected and washed three times with M9 media in a 1:10 ratio to remove E. coli before transfer to LB agar plates seeded with a lawn of L. monocytogenes J0161 for infection. After eight hours of infection, worms were collected and washed with M9 buffer five times before incubation with PNAs. Worms were transferred to low-binding microcentrifuge tubes (10 worms per tube). […] After treatment for 18 hours, worms were washed five times with M9 buffer. […] Samples were serially diluted and plated onto TSA plates containing 5 μg/ml nalidixic acid to select for Listeria.

[2] = tested on: clinical isolates of L. monocytogenes; format: cell-based, Listeria monocytogenes
Method: (§1) The MICs of conjugated PNAs, free PNA, CPPs and untreated control against L. monocytogenes were determined using the broth microdilution method according to the Clinical and Laboratory Standards Institute (CLSI) guidelines with the following modifications. Briefly, low binding clear microcentrifuge tubes (USA scientific, Inc. Ocala, FL) were used in triplicates for each reaction instead of traditional 96-well plates. […] After a 16 hour incubation period (of test agent with bacteria), the number of viable bacteria was enumerated by serial dilution and counting on TSA plates. The MICs were repeated at least twice.

[3] = tested on: mitochondrial biogenesis in J774A.1 cells; assay: Mitobiogenesis assay (In-Cell ELISA, COX-I/SDH-A); conditions: three days, tested at 0.1, 1, 10 and 20 μM, COX-I/SDH-A ratio
Method: To measure the effect of PNA on the mitochondrial biogenesis, In-Cell ELISA Kit (MitoSciences Inc., Eugene, OR, USA) was used as per the manufacturer’s instructions[54][55]. Briefly, J774A.1 cells were seeded (approximately 40,000 cells per well) in 96-well plates and allowed to adhere. […] Cells were allowed to grow for approximately 3 days. Media were removed and cells were washed with PBS, then fixed with 4% paraformaldehyde. After fixing, cells were washed with PBS and permeabilization and blocking processes were done according to the manufacturer’s instructions. Primary antibodies to detect the levels of two proteins (subunit I of Complex IV (COX-I), that is mitochondrial DNA (mtDNA)-encoded), and the 70 kDa subunit of Complex II (SDH-A), a nuclear DNA (nDNA)-encoded were added and incubated for overnight at 4 °C. After incubation, cells were washed with PBS and secondary antibodies were added and incubated at room temperature for one hour. After washing, the expression of SDH-A and COX-1 were measured at 405 nm and 600 nm wavelength, respectively. The ratio between COX-I and SDH-A was calculated and the percent of inhibition of mitochondrial biogenesis was determined.

L. monocytogenes F4244 [4] = assay: Concentration-dependent bacterial log reduction in pure culture; format: cell-based, Listeria monocytogenes; conditions: for Log CFU/ml: pure culture F4244, 16 hour incubation; for Log CFU reduction: relative to control, pure culture F4244
Method: as §1

[5] = tested on: L. monocytogenes F4244 inside infected J774A.1 cells; format: cell-based; conditions: 4 hours; for Log CFU/ml: intracellular F4244 in J774A.1; for Log CFU reduction: intracellular F4244 in J774A.1, versus control
L. monocytogenes F4244 [6] = assay: Time kill assay; format: cell-based, Listeria monocytogenes; conditions: 12 hours; for bactericidal or bacteriostatic activity: L. monocytogenes, time kill at 32 μM; for time to complete eradication of Listeria: 32 μM PNA, 37 °C, samples every 2 hours, ~10^5 CFU/ml
Method: L. monocytogenes F4244 in logarithmic growth phase was diluted to ~10^5 CFU/ml and incubated with 32 μM of the five PNAs (in triplicates) at 37 °C for 12 hours. Samples were collected every two hours, serially diluted, and plated onto TSA plates. Plates were then incubated wat 37 °C for 24 hours before viable CFUs were determined.
Samples were collected every 20 minutes and processed as above.

L. monocytogenes F4244 [7] = assay: Time kill assay; format: cell-based, Listeria monocytogenes; conditions: 8 μM PNA, 37 °C, samples every 20 minutes, inoculum 2.4 × 10^5 CFU/ml
[8] = concentration required to inhibit 50% of L. monocytogenes isolates (six isolates)
[9] = strain ATCC 13932, broth microdilution in low binding tubes, triplicates, 16 hour incubation
[10] = strain ATCC 19111, broth microdilution in low binding tubes, triplicates, 16 hour incubation
[11] = strain ATCC 19112, broth microdilution in low binding tubes, triplicates, 16 hour incubation
[12] = strain ATCC 19114, broth microdilution in low binding tubes, triplicates, 16 hour incubation
[13] = strain F4244, broth microdilution in low binding tubes, triplicates, 16 hour incubation, no turbidity
[14] = strain J0161, broth microdilution in low binding tubes, triplicates, 16 hour incubation

Molecule	Log CFUs/worm ([1]; 16 µM) [Log CFUs/worm]	Log CFUs reduction ([1]; 16 µM) [Log CFUs]	Log CFUs/worm ([1]; 32 µM) [Log CFUs/worm]	Log CFUs reduction ([1]; 32 µM) [Log CFUs]	Log CFU/ml (L. monocytogenes F4244 [4]; 1 µM PNA) [Log CFU/ml]	Log CFU reduction (L. monocytogenes F4244 [4]; 1 µM PNA) [Log CFU]	Log CFU/ml (L. monocytogenes F4244 [4]; 2 µM PNA) [Log CFU/ml]	Log CFU reduction (L. monocytogenes F4244 [4]; 2 µM PNA) [Log CFU]	Log CFU/ml (L. monocytogenes F4244 [4]; 4 µM PNA) [Log CFU/ml]	Log CFU reduction (L. monocytogenes F4244 [4]; 4 µM PNA) [Log CFU]	Log CFU/ml (L. monocytogenes F4244 [4]; 8 µM PNA)	Log CFU reduction (L. monocytogenes F4244 [4]; 8 µM PNA)	Log CFU/ml (L. monocytogenes F4244 [4]; 16 µM PNA)	MIC50 [2, 8] [µM]	MIC [2, 9] [µM]	MIC [2, 10] [µM]	MIC [2, 11] [µM]	MIC [2, 12] [µM]	MIC [2, 13] [µM]	MIC [2, 14] [µM]	also measured
CNC(C)C1CCC(N)C(OC2C(N)CC(N)C(OC3OCC(C)(O)C(NC)C3O)C2O)O1 (stereo not shown) [Gentamicin, gentamicin, reference compound]	3.52±0.55	0.63	2.18±0.6	2.2	–	–	–	–	–	–	–	–	–	–	–	–	–	–	–	–	–
NCCCC[C@H](NC(=O)[C@H](Cc1ccccc1)NC(=O)[C@H](Cc1ccccc1)NC(=O)[C@H](CCCCN)NC(=O)[C@H](Cc1ccccc1)NC(=O)[C@H](Cc1ccccc1)NC(=O)[C@H](CCCCN)NC(=O)[C@H](Cc1ccccc1)NC(=O)[C@H](Cc1ccccc1)NC(=O)[C@@H](N)CCCCN)C(N)=O [KFF, reference compound] (H-KFFKFFKFFK-NH2)	–	–	–	–	–	–	–	–	–	–	–	–	–	–	–	–	–	–	–	–	MIC50 ([2]; clinical isolates of, 16 h): 64 µM (≈ 90.4 µg/mL)
CC(=O)NC[C@H]1CN(c2ccc(N3CCOCC3)c(F)c2)C(=O)O1 [Linezolid, linezolid]	–	–	–	–	–	–	–	–	–	–	–	–	–	–	–	–	–	–	–	–	inhibition of mitochondrial protein synthesis (mitobiogenesis) [3]: 65%
N=C(N)NCCC[C@H](NC(=O)CN)C(=O)N[C@@H](CCCCN)C(=O)N[C@@H](CCCCN)C(=O)N[C@@H](CCCCN)C(=O)N[C@@H](CCCNC(=N)N)C(=O)N[C@@H](CCCNC(=N)N)C(=O)N[C@@H](CCC(N)=O)C(=O)N[C@@H](CCCNC(=N)N)C(=O)N[C@@H](CCCNC(=N)N)C(=O)N[C@@H](CCCNC(=N)N)C(=O)N[C@@H](Cc1ccc(O)cc1)C(=O)N[C@@H](CCCCN)C(=O)O [TAT, reference compound] (H-GRKKKRRQRRRYK-OH)	–	–	–	–	–	–	–	–	–	–	–	–	–	–	–	–	–	–	–	–	MIC ([2]; clinical isolates of, 16 h): >128 µM; MIC50 ([2]; clinical isolates of, 16 h): >128 µM
CC1(C)S[C@@H]2[C@H](NC(=O)[C@H](N)c3ccccc3)C(=O)N2[C@H]1C(=O)O [ampicillin]	–	–	–	–	–	–	–	–	–	–	–	–	–	–	–	–	–	–	–	–	inhibition of mitochondrial protein synthesis (mitobiogenesis) [3]: does not significantly inhibit mitobiogenesis
KFFKFFKFFK-O-cgatcattcaaa-NH2 [PKFF, anti-rpoA PNA covalently conjugated to the (KFF)3K CPP]	3.43±0.2	0.71	3.35±0.25	1.03	9.40±0.08	-0.009	9.35±0.05	0.041	9.26±0.07	0.129	8.93±0.35 Log CFU/ml	0.46 Log CFU	8.40±0.16 Log CFU/ml	32	32	32	32	2	32	32	Log CFU reduction (L. monocytogenes F4244 [4]; 16 µM PNA): 0.98 Log CFU; Log CFU/ml (L. monocytogenes F4244 [4]; 32 µM PNA): 6.63±0.59 Log CFU/ml; Log CFU reduction (L. monocytogenes F4244 [4]; 32 µM PNA): 2.78 Log CFU; Log CFU/ml ([5]; 2 μM): 6.77 ± 0.03 Log CFU/ml; Log CFU reduction ([5]; 2 μM): −0.031 Log CFU; Log CFU/ml ([5]; 4 μM): 6.76 ± 0.08 Log CFU/ml; Log CFU reduction ([5]; 4 μM): −0.029 Log CFU; Log CFU/ml ([5]; 8 μM): 6.12 ± 0.32 Log CFU/ml; Log CFU reduction ([5]; 8 μM): 0.6 Log CFU; bactericidal or bacteriostatic activity (L. monocytogenes F4244 [6]): bacteriostatic effect
RFRRFRRFRRFRXB [(RFR)4XB, cell penetrating peptide (RFR)4XB, reference compound]	–	–	–	–	–	–	–	–	–	–	–	–	–	>128	>128	32	>128	128	>128	>128	MIC ([2]; strain F4244, broth microdilution in low binding tubes, triplicates, 16 hour incubation, no turbidity, listed as RFR): no growth inhibition
RFRRFRRFRRFRXB-O-cgatcattcaaa-NH2 [PRFR, anti-rpoA PNA covalently conjugated to the (RFR)4XB CPP]	2.85±0.60	1.3	1.86±0.26	2.52	9.26±0.09	0.13	7.48±0.69	1.91	6.10±0.63	3.29	bacterial clearance; also recorded: Cleared	9.39 Log CFU	Cleared	4	4	8	4	1	2	16	Log CFU reduction (L. monocytogenes F4244 [4]; 16 µM PNA): 9.39 Log CFU; Log CFU/ml (L. monocytogenes F4244 [4]; 32 µM PNA): Cleared; Log CFU reduction (L. monocytogenes F4244 [4]; 32 µM PNA): 9.39 Log CFU; Log CFU/ml ([5]; 2 μM): 5.89 ± 0.65 Log CFU/ml; Log CFU reduction ([5]; 2 μM): 0.84 Log CFU; Log CFU/ml ([5]; 4 μM): 5.10 ± 0.28 Log CFU/ml; Log CFU reduction ([5]; 4 μM): 1.63* Log CFU; Log CFU/ml ([5]; 8 μM): 4.29 ± 0.04 Log CFU/ml; Log CFU reduction ([5]; 8 μM): 2.43* Log CFU; time to complete eradication of Listeria (L. monocytogenes F4244 [6]): ≤ 2 h; bactericidal or bacteriostatic activity (L. monocytogenes F4244 [6]): bactericidal activity; time to complete elimination of starting inoculum (L. monocytogenes F4244 [7]): ≤ 20 min
RQIKIWFQNRRMKWKK-O-cgatcattcaaa-NH2 [PANT, anti-rpoA PNA covalently conjugated to the antennapedia CPP]	3.88±0.15	0.27	2.49±0.48	1.89	9.30±0.06	0.095	9.27±0.21	0.119	9.14±0.05	0.25	8.09±0.95 Log CFU/ml	1.3 Log CFU and 1.30 Log CFU	6.73±0.48 Log CFU/ml	32	32	32	32	1	16	32	Log CFU reduction (L. monocytogenes F4244 [4]; 16 µM PNA): 2.66 Log CFU; Log CFU/ml (L. monocytogenes F4244 [4]; 32 µM PNA): bacterial clearance; also recorded: Cleared; Log CFU reduction (L. monocytogenes F4244 [4]; 32 µM PNA): 9.39 Log CFU; Log CFU/ml ([5]; 2 μM): 6.82 ± 0.02 Log CFU/ml; Log CFU reduction ([5]; 2 μM): −0.09 Log CFU; Log CFU/ml ([5]; 4 μM): 6.67 ± 0.05 Log CFU/ml; Log CFU reduction ([5]; 4 μM): 0.06 Log CFU; Log CFU/ml ([5]; 8 μM): 4.65 ± 0.34 Log CFU/ml; Log CFU reduction ([5]; 8 μM): 2.07 Log CFU; time to complete eradication of Listeria (L. monocytogenes F4244 [6]): 10 h; bactericidal or bacteriostatic activity (L. monocytogenes F4244 [6]): bactericidal activity
RXRRXRRXRRXRXB [(RXR)4XB, cell penetrating peptide (RXR)4XB, reference compound]	–	–	–	–	–	–	–	–	–	–	–	–	–	>128	>128	>128	>128	>128	>128	>128	MIC ([2]; strain F4244, broth microdilution in low binding tubes, triplicates, 16 hour incubation, no turbidity, listed as RXR): no growth inhibition
